{
  "source": "PubChem BioAssay AID743417",
  "about": "(Broad Institute, 2014)",
  "note": "Results filed as inconclusive are left out. Activity calls are given as the source filed them.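 Rule for the calls: active = compounds lowering the luciferase signal with a fitted half-maximal dose at most twice their top valid dose (cut at about 30 µM in these data); inconclusive = flat fits with moderate signal loss, or poor fits; inactive = the rest.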",
  "data": [
    {"system": "Clone20 osteoblast Shn3 3'UTR firefly luciferase, 24 h", "assay": "Shn3 3'UTR reporter inhibitors, dose response, cell-based, Clone20 osteoblasts, luminescence, dry powder, set 2 (AID 743417)", "values": [
      {"smiles": "Cc1onc(-c2ccccc2Cl)c1C(=O)N1CCC(Cc2ccccc2)CC1", "AC50": "2290 nM"},
      {"smiles": "COc1ccc(NS(=O)(=O)c2ccc(N3CCOCC3)c(N)c2)cc1", "AC50": "1080 nM"},
      {"smiles": "Cc1cc(F)ccc1S(=O)(=O)Nc1ccccc1C(=O)Nc1ccccc1-c1nc2ccccc2[nH]1", "AC50": "12100 nM"},
      {"smiles": "CCN(CC)S(=O)(=O)c1ccc(C)c(NC(=S)N2CCN(C/C=C/c3ccccc3)CC2)c1", "AC50": "2550 nM"},
      {"smiles": "CC1(C)CC(=O)c2c(nc(SCC(=O)Nc3nsc(-c4ccccc4)n3)c(C#N)c2-c2ccccc2)C1", "AC50": "> 70000 nM (inactive)"},
      {"smiles": "O=c1c2ccccc2sc2ccc(C#CC3(O)CCCCC3)cc12", "AC50": "< 260 nM"},
      {"smiles": "CN(C)S(=O)(=O)c1cccc(NC(=O)c2cccc(S(=O)(=O)N3CCc4ccccc43)c2)c1", "AC50": "3920 nM"},
      {"smiles": "CC(=O)c1cn(Cc2ccccc2F)c2ccccc12", "AC50": "2960 nM"},
      {"smiles": "C/C(Cl)=C\\Cn1c(NCCc2ccccc2)nc2c1c(=O)n(C)c(=O)n2C", "AC50": "283 nM"},
      {"smiles": "O=C(C1=C[C@@H](C2CC2)C[C@@H](OCCCCO)O1)N1CCN(Cc2ccccc2)CC1", "AC50": "> 70000 nM (inactive)"},
      {"smiles": "COC(=O)C1=C(c2ccc(-c3ccccc3)c(F)c2)C[C@@H]2CC[C@H]1N2C(=O)NCC1CC1", "AC50": "4320 nM"},
      {"smiles": "CCN1CCN(Cc2ccc(NC(=O)c3ccc(C)c(NC(=O)c4c[nH]c5cc(C(F)(F)F)ccc5c4=O)c3)cc2C(F)(F)F)CC1", "AC50": "3130 nM"},
      {"smiles": "Cc1[nH]nc2c1-c1nc3ccccc3nc1C(C)(C)C2", "AC50": "4200 nM"},
      {"smiles": "O=C(NCCc1ccccc1)c1ccc2c(c1)OCCCO2", "AC50": "1050 nM"},
      {"smiles": "CC1CCN(Cc2ccc(-c3nnn(CC(=O)Nc4ccccc4Cl)n3)cc2)CC1", "AC50": "1770 nM"},
      {"smiles": "CCCCOc1ccc(Br)cc1CSC(=N)N", "AC50": "1370 nM"},
      {"smiles": "COCCC1CCCCN1C(=O)c1cc(COc2ccc(-n3cncn3)cc2)on1", "note": "(stereo not drawn)", "AC50": "570 nM"},
      {"smiles": "Cc1ccc(Oc2c(C(N)=O)cc([N+](=O)[O-])cc2[N+](=O)[O-])cc1", "AC50": "11900 nM"},
      {"smiles": "O=C(Nc1ccc(Cl)c(Cl)c1)Nc1ccc(N2CCCC2)c(S(=O)(=O)Nc2ccccc2Cl)c1", "AC50": "5130 nM"},
      {"smiles": "Cc1cc(=O)oc2c3c(cc(OCC(=O)Nc4ccc(CCO)cc4)c12)OC(C)(C)CC3", "AC50": "> 70000 nM (inactive)"},
      {"smiles": "CCOC(=O)C1CCN(S(=O)(=O)c2c(Cl)ccc3nonc23)CC1", "AC50": "919 nM"},
      {"smiles": "COc1ccc(OCc2cccc(C(=O)O)c2)cc1", "AC50": "1390 nM"},
      {"smiles": "COc1ccc(CNCCc2c(C)[nH]c3ccc(OC(F)(F)F)cc23)c(OC)c1", "AC50": "963 nM"},
      {"smiles": "CC(=O)c1c(C)[nH]c(C(=O)COc2cc(C)ccc2C(C)C)c1C", "AC50": "1250 nM"},
      {"smiles": "Fc1ccc2[nH]c3c(N4CCc5ccccc5C4)ncnc3c2c1", "AC50": "466 nM"},
      {"smiles": "NC(CCc1ccccc1)c1csc(NC(=O)Nc2ccccc2Oc2ccccc2)n1", "note": "(stereo not drawn)", "AC50": "7180 nM"},
      {"smiles": "Cc1ccc(-c2ccc(/C=C3\\C(=O)ON=C3c3ccccc3)o2)c([N+](=O)[O-])c1", "AC50": "3300 nM"},
      {"smiles": "COc1ccccc1NS(=O)(=O)c1cc(NC(=O)c2ccc(Cl)nc2)ccc1Cl", "AC50": "3120 nM"},
      {"smiles": "O=C(NCc1cccnc1)/C(=C/c1ccc(-c2ccc(Cl)cc2)o1)S(=O)(=O)c1ccccc1", "AC50": "5350 nM"},
      {"smiles": "COc1ccc(CC(N)c2csc(NC(=O)NC(c3ccccc3)c3ccccc3)n2)cc1", "note": "(stereo not drawn)", "AC50": "6400 nM"},
      {"smiles": "CC(C)(C)C(=O)Nc1cc(S(=O)(=O)N2CCCCC2)ccc1N1CCCCC1", "AC50": "23100 nM"},
      {"smiles": "O=C(Nc1ccc(-c2nc3ncccc3o2)cc1)c1ccc([N+](=O)[O-])o1", "AC50": "1340 nM"},
      {"smiles": "CC(C)(C)Nc1nc(-c2ccccn2)nc2ccccc12", "AC50": "1860 nM"},
      {"smiles": "COc1ccc(CC2(CO)CCN(CC3=Cc4cc(Cl)ccc4OC3)CC2)cc1", "AC50": "1330 nM"},
      {"smiles": "CCOC(=O)N1CCC(NC(=O)C2CCCN(Cc3nc(-c4cccc(Cl)c4)oc3C)C2)CC1", "note": "(stereo not drawn)", "AC50": "9500 nM"},
      {"smiles": "O=C(Nc1nc2c(F)cc(F)cc2s1)c1ccccn1", "AC50": "6690 nM"},
      {"smiles": "COc1ccc(C2/C=C\\CN(C(=O)c3ccc(C)cc3)[C@H](Cc3ccccc3)C(=O)N2Cc2ccc(F)cc2)cc1", "note": "(stereo partly drawn)", "AC50": "772 nM"},
      {"smiles": "CCN(CC)S(=O)(=O)c1cccc(NC(=O)CNc2cccc(S(=O)(=O)N3CCOCC3)c2)c1", "AC50": "865 nM"},
      {"smiles": "S=C(NCc1ccc(Cl)cc1)Nc1ccncc1", "AC50": "1500 nM"},
      {"smiles": "CCN(CC)C(=O)C1CCN(S(=O)(=O)c2ccc3oc4ccccc4c3c2)CC1", "AC50": "3960 nM"},
      {"smiles": "COc1cc(OC)c(OC)cc1CNC(=O)c1cccc(S(=O)(=O)N2CCc3ccccc3C2)c1", "AC50": "2390 nM"},
      {"smiles": "CCn1cc(CN(C)S(=O)(=O)c2ccc3ccccc3c2)c(C)n1", "AC50": "1560 nM"},
      {"smiles": "CCN(CC)CCNc1cc(C)nc2c1C(=O)C(=O)C=C2N1CCCCC1", "AC50": "6610 nM"},
      {"smiles": "CCCCC(=O)NC(c1ccccc1OC)c1ccc2cccnc2c1O", "note": "(stereo not drawn)", "AC50": "1190 nM"},
      {"smiles": "N=c1n(Cc2ccccc2)c2ccccc2n1CC(O)COc1ccc(Cl)cc1Cl", "note": "(stereo not drawn)", "AC50": "2890 nM"},
      {"smiles": "COC(=O)c1ccccc1NC(=S)N(Cc1ccc2c(c1)OCO2)Cc1cc2cc(OC)ccc2[nH]c1=O", "AC50": "10400 nM"},
      {"smiles": "O[C@@H]1CN(Cc2ccc(-n3cccn3)cc2)CC[C@H]1N1CCN(c2ccccc2F)CC1", "AC50": "2130 nM"},
      {"smiles": "O=C(CSc1nnc(-c2cccnc2)s1)Nc1ccnc2ccccc12", "AC50": "661 nM"},
      {"smiles": "COc1cc(NS(=O)(=O)c2ccc(C)cc2C)cc(OC)c1OC", "AC50": "4950 nM"},
      {"smiles": "COc1ccc(NS(=O)(=O)c2ccc3ccccc3c2)c2ncccc12", "AC50": "4820 nM"},
      {"smiles": "Cc1ccc(C(=O)Nc2cccc3[nH]c(C(F)(F)F)nc23)cc1", "AC50": "3930 nM"},
      {"smiles": "CCc1ccc(O)c(CNCCNCc2cc(CC)ccc2O)c1", "AC50": "1380 nM"},
      {"smiles": "COc1ccccc1-c1cc(C(F)(F)F)nc(S(=O)(=O)CCCC(=O)NCc2ccc(F)cc2)n1", "AC50": "4430 nM"}
    ]}
  ]
}
